Here are results for 1 compound from ChEMBL document CHEMBL4706479, “Novel Aryloxyethyl Derivatives of 1-(1-Benzoylpiperidin-4-yl)methanamine as the Extracellular Regulated Kinases 1/2 (ERK1/2) Phosphorylation-Preferring Serotonin 5-HT Receptor-Biased Agonists with Robust Antidepressant-like Activity” (J Med Chem, 2019).

One series relates to Rattus norvegicus. The experiment in a line: In vivo biased agonist activity at 5-HT1A receptor in rat prefrontal brain cortex assessed as increase in ERK1/2 phosphorylation levels at 0.04 to […], po measured at 15 mins by Alphalisa assay. It is filed as functional, organism-based. Conditions: dose lower 0.04 mg/kg, dose upper […].
Series [1] is filed under the species Homo sapiens. The experiment in a line: Inhibition of delta 2-type opioid receptor (unknown origin) at 10 uM relative to control.
For series [2], the target named is Histamine H1 receptor (Homo sapiens) (UniProt P35367). Nature of the series: Displacement of [3H]-pyrilamine from human recombinant histamine H1 receptor stably expressed in CHO-K1 cell membranes at 1 uM measured after 60 mins by microbeta2 scintillation counting analysis relative to control. To be noted: Cell membrane.
Chain of Histamine H1 receptor (Homo sapiens) (P35367 whole entry): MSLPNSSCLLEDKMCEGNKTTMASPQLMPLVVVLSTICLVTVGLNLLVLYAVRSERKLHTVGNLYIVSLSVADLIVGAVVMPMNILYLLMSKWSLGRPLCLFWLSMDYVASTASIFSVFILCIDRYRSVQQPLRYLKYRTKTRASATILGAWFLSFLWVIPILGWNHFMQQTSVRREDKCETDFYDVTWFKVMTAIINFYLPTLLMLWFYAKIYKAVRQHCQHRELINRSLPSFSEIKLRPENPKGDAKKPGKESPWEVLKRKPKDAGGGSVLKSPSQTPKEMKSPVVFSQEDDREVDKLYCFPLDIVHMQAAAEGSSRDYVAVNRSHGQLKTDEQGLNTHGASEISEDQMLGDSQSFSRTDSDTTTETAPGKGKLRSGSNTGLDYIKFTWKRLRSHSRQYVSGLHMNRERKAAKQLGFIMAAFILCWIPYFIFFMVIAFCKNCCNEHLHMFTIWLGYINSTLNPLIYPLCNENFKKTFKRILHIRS
Series [3] concerns the target 5-hydroxytryptamine receptor 7 (Homo sapiens) (UniProt P34969). Nature of the series: Inhibition of 5-HT7 (unknown origin) at 1 uM relative to control.
Series [4] has as its target Vasopressin V1a receptor (Homo sapiens) (UniProt P37288). Nature of the series: Inhibition of vasopressin V1a receptor (unknown origin) at 10 uM relative to control.
Series [5] has as its target Prostaglandin G/H synthase 2 (Homo sapiens) (UniProt P35354). The experiment in a line: Inhibition of COX2 (unknown origin) at 10 uM relative to control.
In series [6] the target is 5-hydroxytryptamine receptor 1D (Homo sapiens) (UniProt P28221). The experiment in a line: Inhibition of 5-HT1D (unknown origin) at 1 uM relative to control.
Chain of 5-hydroxytryptamine receptor 1D (Homo sapiens) (P28221 whole entry): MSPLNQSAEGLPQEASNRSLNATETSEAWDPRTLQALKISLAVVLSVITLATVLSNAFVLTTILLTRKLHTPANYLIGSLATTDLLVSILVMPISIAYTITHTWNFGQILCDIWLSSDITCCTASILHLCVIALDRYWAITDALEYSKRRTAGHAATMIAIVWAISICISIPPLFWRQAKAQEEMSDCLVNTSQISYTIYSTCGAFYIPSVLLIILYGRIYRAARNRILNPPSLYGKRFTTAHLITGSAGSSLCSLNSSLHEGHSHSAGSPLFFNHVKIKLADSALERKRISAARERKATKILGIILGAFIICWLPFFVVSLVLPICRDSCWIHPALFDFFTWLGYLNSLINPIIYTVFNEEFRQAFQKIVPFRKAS
Series [7] in a line: Tmax in Wistar rat at […], po measured after 60 mins by HPLC analysis. Conditions: in vivo, dose 2.5 mg/kg. The class given is ADME, organism-based.
Series [8] is described as follows: Aqueous solubility of compound in simulated gastric fluid at 200 uM. The class given is physicochemical.
For series [9], the species on record is Homo sapiens. The experiment in a line: Inhibition of sodium channel site2 (unknown origin) at 10 uM relative to control.
For series [10], the species on record is Homo sapiens. The experiment in a line: Inhibition of NMDA glutamate receptor (unknown origin) at 10 uM relative to control.
Series [11] deals with Muscarinic acetylcholine receptor M2 (Homo sapiens) (UniProt P08172). The experiment in a line: Inhibition of muscarinic M2 receptor (unknown origin) at 10 uM relative to control.
Chain of Muscarinic acetylcholine receptor M2 (Homo sapiens) (P08172 whole entry): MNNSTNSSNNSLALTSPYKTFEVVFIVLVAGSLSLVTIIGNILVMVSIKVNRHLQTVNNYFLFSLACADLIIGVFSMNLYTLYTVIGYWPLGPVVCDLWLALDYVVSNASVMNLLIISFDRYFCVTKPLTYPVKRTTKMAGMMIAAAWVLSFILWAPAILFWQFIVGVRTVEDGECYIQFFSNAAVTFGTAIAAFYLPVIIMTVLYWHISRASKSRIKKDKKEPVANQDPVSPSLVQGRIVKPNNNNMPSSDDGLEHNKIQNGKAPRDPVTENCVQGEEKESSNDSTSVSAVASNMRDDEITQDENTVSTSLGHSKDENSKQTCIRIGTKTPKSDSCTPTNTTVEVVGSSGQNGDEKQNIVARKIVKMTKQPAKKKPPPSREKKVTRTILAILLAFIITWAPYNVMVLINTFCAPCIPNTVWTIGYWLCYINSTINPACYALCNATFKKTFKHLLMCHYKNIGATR
The target in series [12] is Neuronal acetylcholine receptor; alpha4/beta2 (Homo sapiens) (UniProt P17787+P43681). The experiment in a line: Inhibition of nicotinic acetylcholine receptor alpha4beta2 (unknown origin) at 10 uM relative to control. The class given is protein-complex assay.
Another series deals with hERG (KCNH2) (Homo sapiens, UniProt Q12809). Nature of the series: Displacement of [3H]-dofetilide from human ERG (unknown origin) at 10 uM relative to control. Conditions: probe [3H]-dofetilide.
Chain of hERG (KCNH2) (Q12809 whole entry): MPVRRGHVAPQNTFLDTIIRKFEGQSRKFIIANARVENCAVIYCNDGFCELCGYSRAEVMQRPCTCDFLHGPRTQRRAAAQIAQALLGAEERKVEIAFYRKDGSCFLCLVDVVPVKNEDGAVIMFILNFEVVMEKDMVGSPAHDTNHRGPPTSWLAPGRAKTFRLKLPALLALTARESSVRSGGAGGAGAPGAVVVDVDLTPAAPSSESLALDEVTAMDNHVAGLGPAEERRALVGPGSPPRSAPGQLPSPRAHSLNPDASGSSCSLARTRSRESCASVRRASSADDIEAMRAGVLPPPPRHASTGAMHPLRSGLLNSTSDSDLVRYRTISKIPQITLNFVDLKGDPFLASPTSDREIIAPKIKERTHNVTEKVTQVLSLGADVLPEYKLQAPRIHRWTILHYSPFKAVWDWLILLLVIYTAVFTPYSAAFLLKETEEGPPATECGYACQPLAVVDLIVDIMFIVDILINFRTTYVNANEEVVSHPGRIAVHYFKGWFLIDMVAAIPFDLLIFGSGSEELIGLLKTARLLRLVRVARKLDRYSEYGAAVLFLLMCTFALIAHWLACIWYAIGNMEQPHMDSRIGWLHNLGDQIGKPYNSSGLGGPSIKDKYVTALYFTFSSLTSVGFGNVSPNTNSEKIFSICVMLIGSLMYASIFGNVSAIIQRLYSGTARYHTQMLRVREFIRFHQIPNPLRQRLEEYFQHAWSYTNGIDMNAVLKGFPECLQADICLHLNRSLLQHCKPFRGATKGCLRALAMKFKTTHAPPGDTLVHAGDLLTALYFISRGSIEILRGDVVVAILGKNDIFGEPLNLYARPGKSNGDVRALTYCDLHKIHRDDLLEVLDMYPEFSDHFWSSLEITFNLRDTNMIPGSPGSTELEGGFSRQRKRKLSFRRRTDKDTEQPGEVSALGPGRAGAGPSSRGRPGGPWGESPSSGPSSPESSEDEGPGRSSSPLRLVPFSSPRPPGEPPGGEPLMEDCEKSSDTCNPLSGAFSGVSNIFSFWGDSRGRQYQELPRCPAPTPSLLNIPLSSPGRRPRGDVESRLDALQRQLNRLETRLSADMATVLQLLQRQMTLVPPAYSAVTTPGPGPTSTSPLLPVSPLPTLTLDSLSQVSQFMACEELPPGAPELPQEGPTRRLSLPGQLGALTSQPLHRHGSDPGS
In series [13] the target is Beta-2 adrenergic receptor (Homo sapiens) (UniProt P07550). Nature of the series: Inhibition of adrenergic beta2 receptor (unknown origin) at 10 uM relative to control.
Chain of Beta-2 adrenergic receptor (Homo sapiens) (P07550 whole entry, looked up): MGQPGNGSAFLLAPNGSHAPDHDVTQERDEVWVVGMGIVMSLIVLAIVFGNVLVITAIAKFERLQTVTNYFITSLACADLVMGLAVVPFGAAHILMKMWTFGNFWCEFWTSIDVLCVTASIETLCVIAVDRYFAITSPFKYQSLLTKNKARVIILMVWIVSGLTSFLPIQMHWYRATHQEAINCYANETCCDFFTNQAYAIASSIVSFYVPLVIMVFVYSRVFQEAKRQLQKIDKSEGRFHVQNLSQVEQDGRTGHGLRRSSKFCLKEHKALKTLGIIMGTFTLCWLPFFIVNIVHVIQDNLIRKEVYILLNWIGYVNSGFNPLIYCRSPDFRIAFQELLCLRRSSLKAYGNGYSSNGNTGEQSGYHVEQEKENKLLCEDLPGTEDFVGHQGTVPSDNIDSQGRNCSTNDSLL
Series [14] addresses Alpha-2A adrenergic receptor (Homo sapiens) (UniProt P08913). The experiment in a line: Inhibition of adrenergic alpha-2A receptor (unknown origin) at 1 uM relative to control.
The nature of series [15]: Intrinsic clearance in human liver microsomes at 0.1 uM. The class given is ADME, Microsome. Conditions: read-out: CLH. On the technique in general: Liver microsomes are a subcellular fraction often used to study metabolism.

Molecules are shown by their SMILES. ≈ marks a conversion by molar mass, not a printed value. Calls of active or inactive are those of the source. No cut-off for these calls is given here. Where only a bound is given, the exact number is not on record here.

Chain of Prostaglandin G/H synthase 2 (Homo sapiens) (P35354 whole entry): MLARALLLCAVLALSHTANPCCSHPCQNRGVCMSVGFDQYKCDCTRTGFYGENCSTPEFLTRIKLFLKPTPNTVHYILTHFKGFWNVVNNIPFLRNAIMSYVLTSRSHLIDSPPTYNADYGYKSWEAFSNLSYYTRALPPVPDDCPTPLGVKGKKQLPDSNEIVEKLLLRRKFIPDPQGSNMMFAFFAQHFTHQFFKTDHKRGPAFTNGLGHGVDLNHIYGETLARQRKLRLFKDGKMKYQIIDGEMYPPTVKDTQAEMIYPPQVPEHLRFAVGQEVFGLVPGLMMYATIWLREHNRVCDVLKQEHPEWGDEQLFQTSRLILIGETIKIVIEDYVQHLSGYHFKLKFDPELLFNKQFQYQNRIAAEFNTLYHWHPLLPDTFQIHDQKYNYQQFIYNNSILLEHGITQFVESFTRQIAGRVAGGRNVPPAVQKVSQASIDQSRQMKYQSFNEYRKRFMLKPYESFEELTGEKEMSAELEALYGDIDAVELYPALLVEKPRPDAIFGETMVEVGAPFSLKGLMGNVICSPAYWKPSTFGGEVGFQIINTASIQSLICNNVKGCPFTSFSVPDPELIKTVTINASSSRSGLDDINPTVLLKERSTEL
Chain of Alpha-2A adrenergic receptor (Homo sapiens) (P08913 whole entry): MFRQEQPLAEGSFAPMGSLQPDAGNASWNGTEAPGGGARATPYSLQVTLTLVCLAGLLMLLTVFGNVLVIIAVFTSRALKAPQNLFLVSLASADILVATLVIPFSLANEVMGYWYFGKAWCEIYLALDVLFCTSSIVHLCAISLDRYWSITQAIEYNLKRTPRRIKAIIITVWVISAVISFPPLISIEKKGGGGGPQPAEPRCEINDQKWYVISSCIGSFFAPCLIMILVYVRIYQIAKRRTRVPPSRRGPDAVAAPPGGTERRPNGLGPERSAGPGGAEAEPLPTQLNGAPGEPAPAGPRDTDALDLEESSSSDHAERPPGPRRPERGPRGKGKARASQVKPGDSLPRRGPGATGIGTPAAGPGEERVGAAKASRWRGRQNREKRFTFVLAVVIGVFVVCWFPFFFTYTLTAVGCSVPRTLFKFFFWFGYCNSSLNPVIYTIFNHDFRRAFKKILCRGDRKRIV
Chain of 5-hydroxytryptamine receptor 7 (Homo sapiens) (P34969 whole entry): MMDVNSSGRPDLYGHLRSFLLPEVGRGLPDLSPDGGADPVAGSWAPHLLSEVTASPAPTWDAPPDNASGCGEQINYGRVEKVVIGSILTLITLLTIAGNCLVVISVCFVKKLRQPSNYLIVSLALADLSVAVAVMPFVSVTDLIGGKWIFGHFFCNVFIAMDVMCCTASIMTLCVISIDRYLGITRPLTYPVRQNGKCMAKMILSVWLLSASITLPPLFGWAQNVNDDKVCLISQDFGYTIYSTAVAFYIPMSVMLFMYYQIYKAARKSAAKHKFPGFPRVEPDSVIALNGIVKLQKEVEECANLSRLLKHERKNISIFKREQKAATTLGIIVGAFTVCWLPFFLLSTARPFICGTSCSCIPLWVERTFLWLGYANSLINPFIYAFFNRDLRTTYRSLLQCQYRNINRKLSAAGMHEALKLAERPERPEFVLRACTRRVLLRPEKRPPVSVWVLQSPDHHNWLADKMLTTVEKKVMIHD
Chain of Vasopressin V1a receptor (Homo sapiens) (P37288 whole entry, looked up): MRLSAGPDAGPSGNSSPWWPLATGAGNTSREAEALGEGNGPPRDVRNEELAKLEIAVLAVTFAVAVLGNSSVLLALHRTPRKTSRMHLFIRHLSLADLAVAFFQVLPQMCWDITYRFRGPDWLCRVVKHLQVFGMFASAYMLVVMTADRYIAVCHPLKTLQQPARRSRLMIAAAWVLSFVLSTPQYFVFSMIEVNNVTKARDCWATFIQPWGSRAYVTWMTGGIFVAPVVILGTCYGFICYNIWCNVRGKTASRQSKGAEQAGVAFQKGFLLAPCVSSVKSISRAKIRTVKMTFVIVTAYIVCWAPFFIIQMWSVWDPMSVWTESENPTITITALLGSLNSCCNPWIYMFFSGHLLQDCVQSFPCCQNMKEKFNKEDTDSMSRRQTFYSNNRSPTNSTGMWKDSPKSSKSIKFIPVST

In general, inhibition refers to the drop in the measured response relative to a control, in per cent. By Tmax is commonly meant the time from dosing to the highest level. Broadly, the solubility is the dissolved amount per volume that the medium holds. With `O=C(c1ccc(F)c(Cl)c1)N1CCC(F)(CNCCOc2ccccn2)CC1`, the result in the series on Rattus norvegicus was Active. The inhibition in the series filed under Homo sapiens [1] is 7.2%; in series [3], 13.2%; in series [4], 7%; in series [5] it was -9.2%; in series [6] it was 25.5%; in the series filed under Homo sapiens [9] it was 48.8%. The inhibition was -1.8% in the series listed under Homo sapiens [10]; 6.3% in series [11]; -5.4% in series [12]; 3.8% in series [13]; 29.9% in [14]. Moreover, the Activity in [2] is less than 50%. The Tmax at 1 h in series [7] is 15 min. The solubility at 200 µM in series [8] was 200 µM (≈ 82 µg/mL). Moreover, the inhibition at 10 µM on hERG (KCNH2) amounted to 16.2%. The microsomal CLint at 0.1 µM in [15] was less than 115 µL/min/mg.
